Reference: ChEMBL document CHEMBL3045377, “An aphid repellent glycoside from Solanum laxum” (2000)

Assays:
Assay type in all cases: functional
Schizaphis graminum [1] = experiment: Toxicity against Schizaphis graminum fed on artificial diet containing compound assessed as relative survival at 50 uM after 24 hr by non-choice assay (reference value: 100 +/-0%)
Schizaphis graminum [2] = experiment: Feeding deterrence activity against Schizaphis graminum fed on artificial diet containing compound assessed as relative survival at 500 uM after 24 hr by non-choice assay (reference value: 100 +/-0%)
Schizaphis graminum [3] = experiment: Feeding deterrence activity against Schizaphis graminum fed on artificial diet containing compound assessed as relative survival at 250 uM after 24 hr by non-choice assay (reference value: 100 +/-0%)
Schizaphis graminum [4] = experiment: Feeding deterrence activity against Schizaphis graminum fed on artificial diet containing compound assessed as relative survival at 100 uM after 24 hr by non-choice assay (reference value: 100 +/-0%)
Schizaphis graminum [5] = experiment: Feeding deterrence activity against Schizaphis graminum fed on artificial diet containing compound assessed as relative survival at 50 uM after 24 hr by non-choice assay (reference value: 100 +/-0%)
Schizaphis graminum [6] = experiment: Feeding deterrence activity against Schizaphis graminum fed on artificial diet containing compound assessed as relative survival at 500 uM after 12 hr by non-choice assay (reference value: 100 +/-0%)
Schizaphis graminum [7] = experiment: Feeding deterrence activity against Schizaphis graminum fed on artificial diet containing compound assessed as relative survival at 250 uM after 12 hr by non-choice assay (reference value: 100 +/-0%)
Schizaphis graminum [8] = experiment: Feeding deterrence activity against Schizaphis graminum fed on artificial diet containing compound assessed as relative survival at 100 uM after 12 hr by non-choice assay (reference value: 100 +/-0%)
Schizaphis graminum [9] = experiment: Feeding deterrence activity against Schizaphis graminum fed on artificial diet containing compound assessed as relative survival at 50 uM after 12 hr by non-choice assay (reference value: 100 +/-0%)
Schizaphis graminum [10] = experiment: Toxicity against Schizaphis graminum fed on artificial diet containing compound assessed as relative survival at 500 uM after 24 hr by non-choice assay (reference value: 100 +/-0%)
Schizaphis graminum [11] = experiment: Toxicity against Schizaphis graminum fed on artificial diet containing compound assessed as relative survival at 250 uM after 24 hr by non-choice assay (reference value: 100 +/-0%)
Schizaphis graminum [12] = experiment: Toxicity against Schizaphis graminum fed on artificial diet containing compound assessed as relative survival at 100 uM after 24 hr by non-choice assay (reference value: 100 +/-0%)

Q: With `C[C@H]1CC[C@@]2(OC1)O[C@H]1[C@H](O)[C@H]3[C@@H]4CC=C5C[C@@H](O[C@@H]6O[C@H](CO)[C@H](O[C@@H]7O[C@H](CO)[C@@H](O)[C@H](O)[C@H]7O[C@@H]7O[C@H](CO)[C@@H](O)[C@H](O)[C@H]7O)[C@H](O)[C@H]6O[C@@H]6O[C@@H](C)[C@H](O)[C@@H](O)[C@H]6O)CC[C@]5(C)[C@H]4CC[C@]3(C)[C@H]1[C@@H]2C` [Luciamin] as the molecule, how does the survival at 50 µM (Schizaphis graminum [1]) read?
A: The survival at 50 µM was 47%.

Q: What about the survival at 500 µM (Schizaphis graminum [2]) of the same molecule?
A: The survival at 500 µM was 76%.

Q: And the survival at 250 µM (Schizaphis graminum [3])?
A: Its survival at 250 µM is 72%.

Q: What about the survival at 100 µM (Schizaphis graminum [4]) of the same molecule?
A: Its survival at 100 µM is 70%.

Q: What about the survival at 50 µM (Schizaphis graminum [5]) of the same molecule?
A: Its survival at 50 µM is 64%.

Q: And the survival at 500 µM (Schizaphis graminum [6])?
A: The survival at 500 µM was 70%.

Q: What about the survival at 250 µM (Schizaphis graminum [7]) of the same molecule?
A: Its survival at 250 µM is 85%.

Q: What about the survival at 100 µM (Schizaphis graminum [8]) of the same molecule?
A: Its survival at 100 µM is 80%.

Q: What about the survival at 50 µM (Schizaphis graminum [9]) of the same molecule?
A: Its survival at 50 µM is 93%.

Q: And the survival at 500 µM (Schizaphis graminum [10])?
A: The survival at 500 µM was 40%.

Q: And the survival at 250 µM (Schizaphis graminum [11])?
A: Its survival at 250 µM is 48%.

Q: And the survival at 100 µM (Schizaphis graminum [12])?
A: Its survival at 100 µM is 49%.
